{"source": "PubChem BioAssay AID743155", "about": "(The Scripps Research Institute Molecular Screening Center, 2013)", "note": "Activity calls are given as the source filed them. How the calls were made is not given here.", "data": [{"system": "Jurkat cells cytotoxicity, ATP luminescence", "assay": "Jurkat cell viability loss, dose response – luminescence, human T lymphocytes, Round001, cytotoxicity control for T. brucei MetRS inhibitor project, late-stage follow-up (AID 743155)", "values": [{"smiles": "CC1Cc2ccccc2N1C(=O)Cn1cc(C(=O)C(=O)N2CCOCC2)c2ccccc21", "note": "(centres undefined)", "IC50": "> 83.3 µM (inactive)"}, {"smiles": "CC(C)c1nc2ccc(C(=O)N(C)CCc3nc4ccc(F)cc4[nH]3)cc2o1", "IC50": "> 83.3 µM (inactive)"}, {"smiles": "COc1ccc(NC(=O)C2CC(=O)n3c(nc4ccccc43)N2)cc1", "note": "(centres undefined)", "IC50": "> 83.3 µM (inactive)"}, {"smiles": "CC(=O)N(CCc1ccccc1)C1CC(=O)N(c2ccc(Br)cc2)C1=O", "note": "(centres undefined)", "IC50": "> 27.8 µM (inactive)"}, {"smiles": "O=C(NCCc1nc2ccccc2[nH]1)c1ccc(Cl)cc1", "IC50": "> 27.8 µM (inactive)"}, {"smiles": "CCN(CC)C(=O)C(=O)c1cn(CC(=O)N2CCCc3ccccc32)c2ccccc12", "IC50": "> 83.3 µM (inactive)"}, {"smiles": "O=C(Cn1cc(C(=O)C2CC2)c2ccccc21)Nc1cccc(C(F)(F)F)c1", "IC50": "> 27.8 µM (inactive)"}, {"smiles": "CC(=O)c1cn(CC(=O)Nc2cccc(C(F)(F)F)c2)c2ccccc12", "IC50": "> 27.8 µM (inactive)"}, {"smiles": "CCc1ccc2c(c1)c1nnc(SCC(=O)Nc3ccc4c(c3)OCO4)nc1n2C", "IC50": "81.1 µM (inactive)"}, {"smiles": "COc1ccc(NC(=O)CSc2nnc3c4cc(C)ccc4n(C)c3n2)cc1", "IC50": "> 83.3 µM (inactive)"}, {"smiles": "O=C(Cn1cc(C(=O)COc2ccccc2)c2ccccc21)Nc1cccc(C(F)(F)F)c1", "IC50": "> 27.8 µM (inactive)"}, {"smiles": "O=C(CSC1CC(=O)N(c2cccc(Cl)c2)C1=O)Nc1ccc(Br)cc1", "note": "(centres undefined)", "IC50": "> 27.8 µM (inactive)"}, {"smiles": "COc1ccc(CCN(C(=S)Nc2ccccc2)C2CC(=O)N(c3ccc(Cl)cc3)C2=O)cc1", "note": "(centres undefined)", "IC50": "27.2 µM (inactive)"}, {"smiles": "CCc1ccc2[nH]c3nc(SCC(=O)NCc4cccc(OC)c4)nnc3c2c1", "IC50": "> 27.8 µM (inactive)"}, {"smiles": "COCCc1nc2ccc(C(=O)NCCc3nc4ccc(OC)cc4[nH]3)cc2o1", "IC50": "> 27.8 µM (inactive)"}, {"smiles": "Cc1cc2cc(C(=O)N3CCCC(c4nc5ccccc5[nH]4)C3)ccc2o1", "note": "(centres undefined)", "IC50": "> 27.8 µM (inactive)"}, {"smiles": "CCN(CC)C(=O)C(=O)c1cn(CC(=O)Nc2ccccc2OC)c2ccccc12", "IC50": "> 83.3 µM (inactive)"}, {"smiles": "O=C(Cn1cc(C(=O)c2ccccc2)c2ccccc21)Nc1cccc(C(F)(F)F)c1", "IC50": "55.5 µM (inactive)"}, {"smiles": "O=C(Nc1ccc(F)c(Cl)c1)C1CC(=O)n2c(nc3ccccc32)N1", "note": "(centres undefined)", "IC50": "> 83.3 µM (inactive)"}, {"smiles": "CCN(CCc1nc2ccc(C)cc2[nH]1)C(=O)c1ccc2ncccc2c1", "IC50": "> 83.3 µM (inactive)"}, {"smiles": "CCN(CC)C(=O)C(=O)c1cn(CC(=O)N(CC)c2ccccc2)c2ccccc12", "IC50": "> 27.8 µM (inactive)"}, {"smiles": "Cc1cccc(C(=O)NCCc2nc3ccccc3n2CCOc2ccccc2)c1", "IC50": "> 27.8 µM (inactive)"}, {"smiles": "O=C(NCCc1nc2ccccc2[nH]1)c1ccc(Cl)c(Cl)c1", "IC50": "> 83.3 µM (inactive)"}, {"smiles": "Cc1ccc(CNC(=O)CSc2nnc3c(n2)[nH]c2ccc(C)cc23)cc1", "IC50": "> 27.8 µM (inactive)"}, {"smiles": "CNC(=S)N(CCc1ccccc1)C1CC(=O)N(c2ccc(Br)cc2)C1=O", "note": "(centres undefined)", "IC50": "> 27.8 µM (inactive)"}, {"smiles": "Cc1cccc2[nH]c(C3CCCN(C(=O)c4cccc5cccnc45)C3)nc12", "note": "(centres undefined)", "IC50": "> 27.8 µM (inactive)"}, {"smiles": "CCN(CC)C(=O)C(=O)c1cn(CC(=O)Nc2cccc(C(F)(F)F)c2)c2ccccc12", "IC50": "38 µM (inactive)"}, {"smiles": "COc1ccccc1NC(=O)Cn1cc(C(=O)C(=O)N2CCOCC2)c2ccccc21", "IC50": "> 83.3 µM (inactive)"}, {"smiles": "O=C(Cn1cc(C(=O)c2ccco2)c2ccccc21)Nc1cccc(C(F)(F)F)c1", "IC50": "74 µM (inactive)"}, {"smiles": "O=C(NCCc1nc2ccccc2[nH]1)c1c(F)cccc1F", "IC50": "> 83.3 µM (inactive)"}, {"smiles": "O=C(Cn1cc(C(=O)C(=O)N2CCOCC2)c2ccccc21)NCc1ccccc1", "IC50": "> 83.3 µM (inactive)"}, {"smiles": "CCC(=O)c1cn(CC(=O)Nc2cccc(C(F)(F)F)c2)c2ccccc12", "IC50": "> 27.8 µM (inactive)"}, {"smiles": "COc1ccc(CCN(C(=O)c2cccc(F)c2)C2CC(=O)N(c3ccc(Br)cc3)C2=O)cc1", "note": "(centres undefined)", "IC50": "> 83.3 µM (inactive)"}, {"smiles": "Cc1cccc2[nH]c(CCN(C)C(=O)c3cccc(C4CCNC4)c3)nc12", "note": "(centres undefined)", "IC50": "> 83.3 µM (inactive)"}, {"smiles": "O=C(Cn1cc(C(=O)C(=O)N2CCOCC2)c2ccccc21)NCC1CCCO1", "note": "(centres undefined)", "IC50": "> 83.3 µM (inactive)"}, {"smiles": "CCCCn1c(CCNC(=O)c2ccc(F)cc2)nc2ccccc21", "IC50": "> 27.8 µM (inactive)"}, {"smiles": "COc1ccccc1NC(=O)CSc1nnc2c(n1)[nH]c1ccc(C)cc12", "IC50": "47.1 µM (inactive)"}, {"smiles": "O=C(CSc1nnc2c(n1)[nH]c1ccc(Br)cc12)NCc1ccccc1", "IC50": "> 27.8 µM (inactive)"}, {"smiles": "Cc1cccc(NC(=O)C2CC(=O)n3c(nc4ccccc43)N2)c1", "note": "(centres undefined)", "IC50": "> 27.8 µM (inactive)"}, {"smiles": "O=C(NCCc1nc2ccccc2[nH]1)c1ccc(Cl)cc1Cl", "IC50": "> 27.8 µM (inactive)"}, {"smiles": "Cn1c(CCNC(=O)c2ccc(Cl)cc2)nc2ccccc21", "IC50": "> 27.8 µM (inactive)"}, {"smiles": "CCN(C(=O)Cn1cc(C(=O)C(=O)N2CCOCC2)c2ccccc21)c1ccccc1", "IC50": "> 83.3 µM (inactive)"}, {"smiles": "Cc1ccc(C(=O)NCCc2nc3ccccc3[nH]2)cc1[N+](=O)[O-]", "IC50": "> 27.8 µM (inactive)"}, {"smiles": "O=C1CC(NCCc2ccccc2)C(=O)N1c1ccc(Br)cc1", "note": "(centres undefined)", "IC50": "> 83.3 µM (inactive)"}, {"smiles": "CCN(CC)C(=O)C(=O)c1cn(CC(=O)Nc2cccc(OC)c2)c2ccccc12", "IC50": "> 27.8 µM (inactive)"}, {"smiles": "CC(=O)N(CCc1ccccc1)C1CC(=O)N(c2ccc(Cl)cc2)C1=O", "note": "(centres undefined)", "IC50": "> 27.8 µM (inactive)"}, {"smiles": "O=C(Cn1cc(C(=O)C(=O)N2CCCC2)c2ccccc21)Nc1ccccc1", "IC50": "> 83.3 µM (inactive)"}, {"smiles": "Cc1ccc2[nH]c3nc(SCC(=O)Nc4ccc(C(F)(F)F)cc4)nnc3c2c1", "IC50": "> 83.3 µM (inactive)"}, {"smiles": "COc1cccc(NC(=O)C2CC(=O)n3c(nc4ccccc43)N2)c1", "note": "(centres undefined)", "IC50": "> 83.3 µM (inactive)"}]}]}
